Patent US20120220564A1, “SELECTIVE CALCIUM CHANNEL MODULATORS” (Zalicus Pharmaceuticals Ltd., priority 2009, published 2012)
One block for each compound: values may come before it.

What was measured:
α1H (CaV 3.2) = target: T1, α1H (CaV 3.2) (Homo sapiens, UniProt O95180); experiment: T-type calcium channel block, whole cell patch clamp; type: cell-based; details: HEK cells, mainly non-inactivated protocol; values above 10,000 nM represented as 10000
T1 construct: expressed in transfected cells; host or cells: HEK 293
T1 sequence (O95180 whole entry): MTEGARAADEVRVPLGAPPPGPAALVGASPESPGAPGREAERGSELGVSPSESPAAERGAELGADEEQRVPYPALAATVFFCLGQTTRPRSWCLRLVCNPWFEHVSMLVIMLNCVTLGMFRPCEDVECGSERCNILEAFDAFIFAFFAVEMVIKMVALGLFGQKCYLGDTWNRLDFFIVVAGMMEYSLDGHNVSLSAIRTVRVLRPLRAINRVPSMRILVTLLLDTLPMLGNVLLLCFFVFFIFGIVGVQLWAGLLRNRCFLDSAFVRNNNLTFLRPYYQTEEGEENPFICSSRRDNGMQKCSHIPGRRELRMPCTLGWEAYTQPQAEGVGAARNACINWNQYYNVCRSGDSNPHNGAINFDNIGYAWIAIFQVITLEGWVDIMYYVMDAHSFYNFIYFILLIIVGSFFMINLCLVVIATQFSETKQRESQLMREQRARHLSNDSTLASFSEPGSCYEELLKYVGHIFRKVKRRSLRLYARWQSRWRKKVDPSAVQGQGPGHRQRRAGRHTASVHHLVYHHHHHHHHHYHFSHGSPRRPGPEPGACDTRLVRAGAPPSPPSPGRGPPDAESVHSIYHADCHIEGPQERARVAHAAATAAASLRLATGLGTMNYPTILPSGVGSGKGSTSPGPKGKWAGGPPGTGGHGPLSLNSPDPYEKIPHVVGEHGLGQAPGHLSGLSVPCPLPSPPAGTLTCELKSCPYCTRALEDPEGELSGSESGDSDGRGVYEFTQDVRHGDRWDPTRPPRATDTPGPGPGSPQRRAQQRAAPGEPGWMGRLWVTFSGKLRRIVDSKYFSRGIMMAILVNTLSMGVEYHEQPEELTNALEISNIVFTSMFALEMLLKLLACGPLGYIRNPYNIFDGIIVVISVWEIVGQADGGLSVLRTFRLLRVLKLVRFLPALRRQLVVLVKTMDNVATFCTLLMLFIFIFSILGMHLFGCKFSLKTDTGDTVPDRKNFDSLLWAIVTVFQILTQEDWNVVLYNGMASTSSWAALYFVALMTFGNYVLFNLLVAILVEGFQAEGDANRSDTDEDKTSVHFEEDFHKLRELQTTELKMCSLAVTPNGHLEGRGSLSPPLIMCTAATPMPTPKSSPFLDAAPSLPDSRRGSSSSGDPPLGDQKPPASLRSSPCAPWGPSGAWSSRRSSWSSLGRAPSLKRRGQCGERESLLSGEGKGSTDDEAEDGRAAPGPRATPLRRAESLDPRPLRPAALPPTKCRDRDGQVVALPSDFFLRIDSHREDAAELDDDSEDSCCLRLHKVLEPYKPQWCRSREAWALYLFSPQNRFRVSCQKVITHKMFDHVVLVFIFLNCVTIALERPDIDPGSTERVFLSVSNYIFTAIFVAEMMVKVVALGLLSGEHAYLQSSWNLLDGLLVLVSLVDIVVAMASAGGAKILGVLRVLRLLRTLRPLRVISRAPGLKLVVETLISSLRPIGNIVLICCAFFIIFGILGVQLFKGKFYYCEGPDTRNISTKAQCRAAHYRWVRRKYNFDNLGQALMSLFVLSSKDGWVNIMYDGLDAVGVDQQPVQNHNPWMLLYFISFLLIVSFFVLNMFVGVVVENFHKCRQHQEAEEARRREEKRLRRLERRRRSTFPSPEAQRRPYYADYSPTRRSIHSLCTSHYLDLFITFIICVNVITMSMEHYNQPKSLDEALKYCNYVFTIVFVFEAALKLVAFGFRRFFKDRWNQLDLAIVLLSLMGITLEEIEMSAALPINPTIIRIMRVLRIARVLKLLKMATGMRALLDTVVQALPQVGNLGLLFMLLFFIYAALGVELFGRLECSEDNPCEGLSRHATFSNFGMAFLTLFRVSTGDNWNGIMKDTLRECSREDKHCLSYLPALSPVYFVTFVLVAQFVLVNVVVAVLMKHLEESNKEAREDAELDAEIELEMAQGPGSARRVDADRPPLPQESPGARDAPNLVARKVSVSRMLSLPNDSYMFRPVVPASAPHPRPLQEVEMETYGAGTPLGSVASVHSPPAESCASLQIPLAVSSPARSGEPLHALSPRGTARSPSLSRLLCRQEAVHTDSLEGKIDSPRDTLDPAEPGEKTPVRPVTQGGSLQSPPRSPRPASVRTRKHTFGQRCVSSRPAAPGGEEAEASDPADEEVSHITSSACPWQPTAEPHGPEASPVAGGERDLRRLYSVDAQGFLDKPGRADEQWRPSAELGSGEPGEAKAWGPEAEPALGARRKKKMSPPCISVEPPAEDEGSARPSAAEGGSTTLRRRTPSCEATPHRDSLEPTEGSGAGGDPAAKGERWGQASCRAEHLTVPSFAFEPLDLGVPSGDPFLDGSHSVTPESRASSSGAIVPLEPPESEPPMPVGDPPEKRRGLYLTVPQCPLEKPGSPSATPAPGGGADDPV
Method: (§1) T-type calcium channel blocking activity was assayed in human embryonic kidney cells, HEK 293 (Invitrogen), stably transfected with the T-type calcium channel subunits. Briefly, cells were cultured in Dulbecco's modified eagle medium (DMEM) supplemented with 10% fetal bovine serum, 200 U/ml penicillin, and 0.2 mg/mL streptomycin at 37° C. with 5% CO2. At 85% confluency, cells were split with 0.25% trypsin/1 mM EDTA and plated at 10% confluency on glass coverslips. At 12 hours, the medium was replaced, and the cells stably transfected using a standard calcium phosphate protocol and the appropriate calcium channel cDNA's. Fresh DMEM was supplied, and the cells transferred to 28° C./5% CO2. Cells were incubated for 1 to 2 days prior to whole cell recording.
(§2) Standard patch-clamp techniques were employed to identify blockers of T-type currents. Briefly, previously described HEK cell lines stably expressing human α1G, α1H and α1I T-type channels were used for all the recordings (passage #: 4-20, 37° C., 5% CO2). Whole cell patch clamp experiments were performed using an Axopatch 200B amplifier (Axon Instruments, Burlingame, Calif.) linked to a personal computer equipped with pCLAMP software. Data were analyzed using Clampfit (Axon Instruments) and SigmaPlot 4.0 (Jandel Scientific). To obtain T-type currents, plastic dishes containing semi-confluent cells were positioned on the stage of a ZEISS AXIOVERT S100 microscope after replacing the culture medium with external solution (Table 2). Whole-cell patches were obtained using pipettes (borosilicate glass with filament, O.D.: 1.5 mm, I.D.: 0.86 mm, 10 cm length), fabricated on a SUTTER P-97 puller with resistance values of ˜5 MΩ (Table 3).
(§3) T-type currents were reliably obtained by using two voltage protocols:
(§4) In the non-inactivating protocol, the holding potential is set at −110 mV and with a pre-pulse at −100 mV for 1 second prior to the test pulse at −40 mV for 50 ms. In the inactivation protocol, the pre-pulse is at approximately −85 mV for 1 second, which inactivates about 15% of the T-type channels (Scheme 1).
(§5) Test compounds were dissolved in external solution, 0.1-0.01% DMSO. After ˜10 minutes rest, they were applied by gravity close to the cell using a WPI microfil tubing. The “non-inactivated” pre-pulse was used to examine the resting block of a compound. The “inactivated” protocol was employed to study voltage-dependent block. However, the initial data shown below were mainly obtained using the non-inactivated protocol only. IC50 values are shown for various compounds of the invention in Table 4. […] In Table 4, empty cells indicate that inhibition by the compound was not detected.

α1G (CaV 3.1) = target: T2, α1G (CaV 3.1) (Homo sapiens, UniProt O43497); experiment: as above; type: cell-based; details: HEK cells, mainly non-inactivated protocol; values above 10,000 nM represented as 10000
T2 construct: expressed in transfected cells; host or cells: HEK 293
T2 sequence (O43497 whole entry): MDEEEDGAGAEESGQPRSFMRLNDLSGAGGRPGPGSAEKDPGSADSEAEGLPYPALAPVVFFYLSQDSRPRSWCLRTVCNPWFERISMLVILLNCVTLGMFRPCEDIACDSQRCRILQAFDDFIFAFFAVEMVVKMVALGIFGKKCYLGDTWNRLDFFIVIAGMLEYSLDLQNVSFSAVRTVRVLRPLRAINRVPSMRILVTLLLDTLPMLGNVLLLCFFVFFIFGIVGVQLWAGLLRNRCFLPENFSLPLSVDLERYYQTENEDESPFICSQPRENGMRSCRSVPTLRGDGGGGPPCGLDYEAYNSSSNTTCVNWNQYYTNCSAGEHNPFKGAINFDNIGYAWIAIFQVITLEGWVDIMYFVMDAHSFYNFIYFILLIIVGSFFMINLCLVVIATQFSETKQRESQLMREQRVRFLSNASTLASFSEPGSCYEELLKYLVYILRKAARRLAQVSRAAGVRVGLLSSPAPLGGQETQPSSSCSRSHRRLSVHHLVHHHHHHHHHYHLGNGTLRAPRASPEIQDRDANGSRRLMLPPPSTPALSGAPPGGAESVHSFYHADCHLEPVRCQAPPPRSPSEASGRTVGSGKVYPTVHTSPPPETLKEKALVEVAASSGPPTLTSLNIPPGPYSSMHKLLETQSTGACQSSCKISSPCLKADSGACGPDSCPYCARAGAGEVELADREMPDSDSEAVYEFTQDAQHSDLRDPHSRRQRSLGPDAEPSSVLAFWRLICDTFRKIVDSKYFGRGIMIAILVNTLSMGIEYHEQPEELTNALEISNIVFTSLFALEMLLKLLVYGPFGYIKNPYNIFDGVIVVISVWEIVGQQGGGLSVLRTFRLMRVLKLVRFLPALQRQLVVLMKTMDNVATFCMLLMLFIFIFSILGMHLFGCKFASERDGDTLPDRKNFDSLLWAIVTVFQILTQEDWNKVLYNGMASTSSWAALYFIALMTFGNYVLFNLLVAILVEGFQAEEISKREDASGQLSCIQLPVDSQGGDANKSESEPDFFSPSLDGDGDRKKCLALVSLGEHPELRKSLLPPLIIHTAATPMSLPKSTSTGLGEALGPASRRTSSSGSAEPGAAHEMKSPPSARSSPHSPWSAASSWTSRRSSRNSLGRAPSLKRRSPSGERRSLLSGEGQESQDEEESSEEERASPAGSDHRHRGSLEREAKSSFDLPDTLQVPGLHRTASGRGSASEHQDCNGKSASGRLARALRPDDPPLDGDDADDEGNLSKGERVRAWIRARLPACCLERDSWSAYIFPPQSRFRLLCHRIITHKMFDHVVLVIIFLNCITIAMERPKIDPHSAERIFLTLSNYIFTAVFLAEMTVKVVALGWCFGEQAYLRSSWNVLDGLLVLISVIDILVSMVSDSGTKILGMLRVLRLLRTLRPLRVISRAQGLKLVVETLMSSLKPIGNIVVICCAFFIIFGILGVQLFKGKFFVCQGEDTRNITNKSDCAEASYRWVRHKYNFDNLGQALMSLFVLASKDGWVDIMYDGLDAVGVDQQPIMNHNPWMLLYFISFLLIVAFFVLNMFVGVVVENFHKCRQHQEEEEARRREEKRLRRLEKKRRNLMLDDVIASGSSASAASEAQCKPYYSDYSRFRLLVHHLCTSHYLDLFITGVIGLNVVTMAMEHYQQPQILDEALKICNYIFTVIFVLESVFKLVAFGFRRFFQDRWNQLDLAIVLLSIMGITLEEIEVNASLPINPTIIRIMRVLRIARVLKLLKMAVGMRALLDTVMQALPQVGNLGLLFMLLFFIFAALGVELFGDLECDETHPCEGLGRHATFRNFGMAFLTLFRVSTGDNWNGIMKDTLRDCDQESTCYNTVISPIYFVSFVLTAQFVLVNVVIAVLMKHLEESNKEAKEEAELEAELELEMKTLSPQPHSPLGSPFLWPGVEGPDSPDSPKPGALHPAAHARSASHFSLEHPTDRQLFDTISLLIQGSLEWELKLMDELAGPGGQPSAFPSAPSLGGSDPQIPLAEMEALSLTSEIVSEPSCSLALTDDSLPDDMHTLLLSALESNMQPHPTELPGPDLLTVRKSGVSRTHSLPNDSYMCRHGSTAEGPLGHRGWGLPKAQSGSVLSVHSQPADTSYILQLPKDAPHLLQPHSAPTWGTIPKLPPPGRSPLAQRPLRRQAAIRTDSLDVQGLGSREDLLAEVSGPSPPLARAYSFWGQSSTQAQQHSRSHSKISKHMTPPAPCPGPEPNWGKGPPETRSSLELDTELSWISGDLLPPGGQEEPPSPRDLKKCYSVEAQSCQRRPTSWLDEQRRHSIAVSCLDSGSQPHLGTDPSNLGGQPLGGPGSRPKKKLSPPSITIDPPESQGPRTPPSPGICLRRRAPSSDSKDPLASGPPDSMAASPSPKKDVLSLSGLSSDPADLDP
Method: as §1, §2, §3, §4, §5

6 Hz psychomotor seizure = 6 Hz psychomotor seizure model of partial epilepsy; type: in vivo, mice; design: concentration or dose not given beside the values
Text: Compounds can also be evaluated for the protection against seizures induced by a 6 Hz, 0.2 ms rectangular pulse width of 3 s duration, at a stimulus intensity of 32 mA (CC97) applied to the cornea of male CF1 mice (20-30 g) according to procedures described by Barton et al, “Pharmacological Characterization of the 6 Hz Psychomotor Seizure Model of Partial Epilepsy,” Epilepsy Res. 47(3):217-27 (2001). Seizures are characterised by the expression of one or more of the following behaviours: stun, forelimb clonus, twitching of the vibrissae and Straub-tail immediately following electrical stimulation.

[1] = test system: minimal muscular or neurological impairment (rotarod); experiment: Mouse rotarod assay; type: in vivo, mice
Method: To assess a compound's undesirable side effects (toxicity), animals can be monitored for overt signs of impaired neurological or muscular function. In mice, the rotarod procedure (Dunham and Miya, J. Am. Pharmacol. Assoc. 46:208-209 (1957)) is used to disclose minimal muscular or neurological impairment (MMI). When a mouse is placed on a rod that rotates at a speed of 6 rpm, the animal can maintain its equilibrium for long periods of time. The animal is considered toxic if it falls off this rotating rod three times during a 1-min period.

SMILES: CC1(C(=O)N2CCC(CC(=O)Nc3cc(C(F)(F)F)cc(C(F)(F)F)c3)C2)CCCCN1 (stereo not shown) [Compound 34, N-(3,5-bis(trifluoromethyl)phenyl)-2-(1-(2-methylpiperidine-2-carbonyl)pyrrolidin-3-yl)acetamide]
IC50 (α1H (CaV 3.2)): 1940 nM
IC50 (α1G (CaV 3.1)): 4400 nM

SMILES: O=C(Nc1cc(C(F)(F)F)cc(C(F)(F)F)c1)OCC1CCN(C(=O)[C@H]2CCCCN2)CC1 [Compound 69]
Epilepsy 6 Hz (% Protected) (6 Hz psychomotor seizure; 0.25 hr): 75%
Epilepsy 6 Hz (% Protected) (6 Hz psychomotor seizure; 0.5 hr): 75%
Epilepsy 6 Hz (% Protected) (6 Hz psychomotor seizure; 1 hr): 50%
Epilepsy 6 Hz (% Protected) (6 Hz psychomotor seizure; 2 hr): 100%
Epilepsy 6 Hz (% Protected) (6 Hz psychomotor seizure; 4 hr): 33%
Rotarod Assay (% impaired) ([1]; 0.25 hr): 0%
Rotarod Assay (% impaired) ([1]; 0.5 hr): 50%
Rotarod Assay (% impaired) ([1]; 1 hr): 50%
Rotarod Assay (% impaired) ([1]; 2 hr): 100%
Rotarod Assay (% impaired) ([1]; 4 hr): 100%

SMILES: N[C@H]1CCCC[C@@H]1C(=O)N1CCC(CC(=O)Nc2cc(C(F)(F)F)cc(C(F)(F)F)c2)CC1 [Compound 7, 2-(1-((1S,2S)-2-aminocyclohexanecarbonyl)piperidin-4-yl)-N-(3,5-bis(trifluoromethyl)phenyl)acetamide]
IC50 (α1H (CaV 3.2)): 140 nM
IC50 (α1G (CaV 3.1)): > 10000 nM

SMILES: CN1CCCC(C(=O)N2CC(CC(=O)Nc3cc(C(F)(F)F)cc(C(F)(F)F)c3)C2)C1 (stereo not shown) [Compound 38, N-(3,5-bis(trifluoromethyl)phenyl)-2-(1-(1-methylpiperidine-3-carbonyl)azetidin-3-yl)acetamide]
IC50 (α1H (CaV 3.2)): 8040 nM
IC50 (α1G (CaV 3.1)): > 10000 nM

SMILES: O=C(CC1(O)CCN(C(=O)[C@@H]2CCCCN2)CC1)Nc1cc(C(F)(F)F)cc(C(F)(F)F)c1 [Compound 50, (S)-N-(3,5-bis(trifluoromethyl)phenyl)-2-(4-hydroxy-1-(piperidine-2-carbonyl)piperidin-4-yl)acetamide]
IC50 (α1H (CaV 3.2)): 520 nM

SMILES: NC1(CC(=O)N2CCC(CNC(=O)Nc3cc(C(F)(F)F)cc(C(F)(F)F)c3)CC2)CCCCC1 [Compound 59, 1-((1-(2-(1-aminocyclohexyl)acetyl)piperidin-4-yl)methyl)-3-(3,5-bis(trifluoromethyl)phenyl)urea]
Epilepsy 6 Hz (% Protected) (6 Hz psychomotor seizure; 0.25 hr): 25%
Epilepsy 6 Hz (% Protected) (6 Hz psychomotor seizure; 0.5 hr): 50%
Epilepsy 6 Hz (% Protected) (6 Hz psychomotor seizure; 1 hr): 100%
IC50 (α1H (CaV 3.2)): 30 nM
Rotarod Assay (% impaired) ([1]; 0.25 hr): 0%
Rotarod Assay (% impaired) ([1]; 0.5 hr): 25%
Rotarod Assay (% impaired) ([1]; 1 hr): 75%
Rotarod Assay (% impaired) ([1]; 2 hr): 100%
Rotarod Assay (% impaired) ([1]; 4 hr): 100%

SMILES: CC1(CC(=O)Nc2cc(C(F)(F)F)cc(C(F)(F)F)c2)CCN(C(=O)[C@H]2CCCCN2)CC1 [Compound 68]
Epilepsy 6 Hz (% Protected) (6 Hz psychomotor seizure; 0.25 hr): 50%
Epilepsy 6 Hz (% Protected) (6 Hz psychomotor seizure; 0.5 hr): 75%
Epilepsy 6 Hz (% Protected) (6 Hz psychomotor seizure; 1 hr): 100%
Epilepsy 6 Hz (% Protected) (6 Hz psychomotor seizure; 2 hr): 50%
Epilepsy 6 Hz (% Protected) (6 Hz psychomotor seizure; 4 hr): 0%

SMILES: N[C@@H]1CCCC[C@@H]1C(=O)N1CCC(CC(=O)Nc2cc(C(F)(F)F)cc(C(F)(F)F)c2)CC1 [Compound 73]
Epilepsy 6 Hz (% Protected) (6 Hz psychomotor seizure; 0.25 hr): 100%
Epilepsy 6 Hz (% Protected) (6 Hz psychomotor seizure; 0.5 hr): 100%
Epilepsy 6 Hz (% Protected) (6 Hz psychomotor seizure; 1 hr): 100%
Epilepsy 6 Hz (% Protected) (6 Hz psychomotor seizure; 4 hr): 100%
Rotarod Assay (% impaired) ([1]; 0.25 hr): 100%
Rotarod Assay (% impaired) ([1]; 0.5 hr): 100%
Rotarod Assay (% impaired) ([1]; 1 hr): 100%
Rotarod Assay (% impaired) ([1]; 2 hr): 100%
Rotarod Assay (% impaired) ([1]; 4 hr): 75%

SMILES: NC1(CC(=O)N2CCC(NC(=O)Nc3cc(C(F)(F)F)cc(C(F)(F)F)c3)CC2)CCCCC1 [Compound 64, 1-(1-(2-(1-aminocyclohexyl)acetyl)piperidin-4-yl)-3-(3,5-bis(trifluoromethyl)phenyl)urea]
IC50 (α1H (CaV 3.2)): 360 nM

SMILES: N[C@@H]1CCCC[C@H]1C(=O)N1CCC(NC(=O)Nc2cc(C(F)(F)F)cc(C(F)(F)F)c2)CC1 (racemic) [Compound 62, trans-2-(1-(2-aminocyclohexanecarbonyl)piperidin-4-yl)-3-(3,5-bis(trifiuoromethyl)phenyl)urea]
IC50 (α1H (CaV 3.2)): 270 nM

SMILES: N[C@H]1CCCC[C@@H]1C(=O)N1CCC(CC(=O)Nc2ccc(F)cc2)CC1 (racemic) [Compound 11, trans-2-(1-(2-aminocyclohexanecarbonyl)piperidin-4-yl)-N-(4-fluorophenyl)acetamide]
IC50 (α1H (CaV 3.2)): > 10000 nM

SMILES: N[C@@H]1CCCC[C@H]1C(=O)N1CCC(CNC(=O)Nc2cc(C(F)(F)F)cc(C(F)(F)F)c2)CC1 (racemic) [Compound 57]
IC50 (α1H (CaV 3.2)): 250 nM

Next, values leading:

IC50 (α1H (CaV 3.2)): 460 nM
IC50 (α1G (CaV 3.1)): 6190 nM
SMILES: N[C@@H]1CCCC[C@@H]1C(=O)N1CCC(CC(=O)Nc2cc(C(F)(F)F)cc(C(F)(F)F)c2)C1 (stereo partly drawn) [Compound 31, 2-(1-((1S,2R)-2-aminocyclohexanecarbonyl)pyrrolidin-3-yl)-N-(3,5-bis(trifluoromethyl)phenyl)acetamide]

IC50 (α1H (CaV 3.2)): 490 nM
SMILES: N[C@@H]1CCCC[C@H]1C(=O)N1CCC(O)(CC(=O)Nc2cc(C(F)(F)F)cc(C(F)(F)F)c2)CC1 (relative stereo) [Compound 51, trans-2-(1-(2-aminocyclohexanecarbonyl)-4-hydroxypiperidin-4-yl)-N-(3,5-bis(trifluoromethyl)phenyl)acetamide]

IC50 (α1H (CaV 3.2)): 1210 nM
IC50 (α1G (CaV 3.1)): > 10000 nM
SMILES: O=C(CC1CN(C(=O)C2CCCCN2)C1)Nc1cc(C(F)(F)F)cc(C(F)(F)F)c1 (stereo not shown) [Compound 39, N-(3,5-bis(trifluoromethyl)phenyl)-2-(1-(piperidine-2-carbonyl)azetidin-3-yl)acetamide]

IC50 (α1H (CaV 3.2)): 430 nM
SMILES: N[C@@H]1CCCC[C@@H]1C(=O)N1CCC(NC(=O)Nc2cc(C(F)(F)F)cc(C(F)(F)F)c2)CC1 (racemic) [Compound 63, cis-2-(1-(2-aminocyclohexanecarbonyl)piperidin-4-yl)-3-(3,5-bis(trifluoromethyl)phenyl)urea]

IC50 (α1H (CaV 3.2)): 1930 nM
SMILES: N[C@H]1CCCC[C@H]1C(=O)N1CCC(CNC(=O)c2cc(C(F)(F)F)cc(C(F)(F)F)c2)CC1 (racemic) [Compound 49]

IC50 (α1H (CaV 3.2)): > 10000 nM
SMILES: N[C@H]1CCCC[C@@H]1C(=O)N1CCC(CC(=O)Nc2cc(F)c(F)cc2F)CC1 (racemic) [Compound 14, trans-2-(1-(2-aminocyclohexanecarbonyl)piperidin-4-yl)-N-(2,4,5-trifluorophenyl)acetamide]

IC50 (α1H (CaV 3.2)): 250 nM
SMILES: N[C@@H]1CCCC[C@@H]1C(=O)N1CCC(CNC(=O)Nc2cc(C(F)(F)F)cc(C(F)(F)F)c2)CC1 (racemic) [Compound 58]

IC50 (α1H (CaV 3.2)): 2730 nM
SMILES: N[C@H]1CCCC[C@@H]1C(=O)N1CCC(CC(=O)Nc2ccc(OC(F)(F)F)cc2)CC1 (racemic) [Compound 18, trans-2-(1-(2-aminocyclohexanecarbonyl)piperidin-4-yl)-N-(4-(trifluoromethoxy)phenyl)acetamide]

IC50 (α1H (CaV 3.2)): 820 nM
SMILES: N[C@@H]1CCCC[C@@H]1C(=O)N1CCC(O)(CC(=O)Nc2cc(C(F)(F)F)cc(C(F)(F)F)c2)CC1 (racemic) [Compound 52, cis-2-(1-(2-aminocyclohexanecarbonyl)-4-hydroxypiperidin-4-yl)-N-(3,5-bis(trifluoromethyl)phenyl)acetamide]

IC50 (α1H (CaV 3.2)): 950 nM
SMILES: O=C(Nc1cc(C(F)(F)F)cc(C(F)(F)F)c1)NC1CCN(C(=O)[C@@H]2CCCCN2)CC1 [Compound 60, (S)-1-(3,5-bis(trifluoromethyl)phenyl)-3-(1-(piperidine-2-carbonyl)piperidin-4-yl)urea]

IC50 (α1H (CaV 3.2)): 690 nM
SMILES: O=C(Nc1cc(C(F)(F)F)cc(C(F)(F)F)c1)NC1CCN(C(=O)[C@H]2CCCCN2)CC1 [Compound 61, (R)-1-(3,5-bis(trifluoromethyl)phenyl)-3-(1-(piperidine-2-carbonyl)piperidin-4-yl)urea]

IC50 (α1H (CaV 3.2)): 1860 nM
SMILES: O=C(CC1(O)CCN(C(=O)[C@H]2CCCCN2)CC1)Nc1cc(C(F)(F)F)cc(C(F)(F)F)c1 [Compound 53, (R)-N-(3,5-bis(trifluoromethyl)phenyl)-2-(4-hydroxy-1-(piperidine-2-carbonyl)piperidin-4-yl)acetamide]
